Test results taken from PubChem BioAssay AID328 (DTP/NCI, 2004).
Where “and” joins values, the source holds several entries; their conditions need not be identical. Equal entries are not always repeated. Toxic doses and inconclusive results are not listed. How the source made its calls: active means survival T/C of 150% or more; inactive means T/C below 125% in these data.

Tested on: BDF1 mice, P388 leukemia ip, median survival T/C
Test: NCI In Vivo Anticancer Drug Screen. Data for tumor model P388 Leukemia (intraperitoneal) in B6D2F1 (BDF1) mice
Details: endpoint: median survival time, higher = longer survival
How it was run: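 Vehicle-dosed animals serve as the reference; survival of compound-dosed, tumour-implanted mice is divided by it.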

Measured: T/C

CC[C@]1(O)C[C@H]2CN(CCc3c([nH]c4ccccc34)[C@@](C(=O)OC)(c3cc4c(cc3OC)N(C=O)[C@H]3[C@@](O)(C(=O)OC)[C@H](OC(C)=O)[C@]5(CC)C=CCN6CC[C@]43[C@@H]65)C2)C1
225 % of control and 116 % of control: dose: 1200.0 micrograms/kg/injection, schedule: Q04DX003 (ip), vehicle: saline
active: dose: 0.03 mg/kg/injection, schedule: Q01DX010 (ip), vehicle: saline 163 % of control and 172 % of control (2×) | dose: 0.08 mg/kg/injection, schedule: Q01DX009 (ip), vehicle: saline 172 % of control | dose: 0.12 mg/kg/injection, schedule: Q01DX009 (ip), vehicle: saline 300 % of control | dose: 0.13 mg/kg/injection, schedule: Q01DX010 (ip), vehicle: saline 168 % of control | dose: 0.2 mg/kg/injection, schedule: Q01DX009 (ip), vehicle: saline 231 % of control and 277 % of control | dose: 0.2 mg/kg/injection, schedule: Q04DX002 (ip), vehicle: saline 163 % of control | dose: 0.22 mg/kg/injection, schedule: Q01DX009 (ip), vehicle: clinical formulation 245 % of control | dose: 0.25 mg/kg/injection, schedule: Q01DX009 (ip), vehicle: saline 275 % of control | dose: 0.25 mg/kg/injection, schedule: Q01DX010 (ip), vehicle: saline 240 % of control and 254 % of control and 163 % of control | dose: 0.3 mg/kg/injection, schedule: Q01DX009 (ip), vehicle: saline 289 % of control and 500 % of control | dose: 0.3 mg/kg/injection, schedule: Q04DX003 (ip), vehicle: saline 186 % of control | dose: 0.45 mg/kg/injection, schedule: Q01DX009 (ip), vehicle: saline 278 % of control and 336 % of control | dose: 0.48 mg/kg/injection, schedule: Q04DX003 (ip), vehicle: saline 232 % of control and 150 % of control | dose: 0.5 mg/kg/injection, schedule: Q04DX003 (ip), vehicle: water 177 % of control | dose: 0.53 mg/kg/injection, schedule: Q04DX003 (ip), vehicle: saline 183 % of control | dose: 0.8 mg/kg/injection, schedule: Q04DX003 (ip), vehicle: clinical formulation 236 % of control | dose: 1.0 mg/kg/injection, schedule: Q01DX001 (ip), vehicle: water 153 % of control | dose: 1.0 mg/kg/injection, schedule: Q04DX003 (ip), vehicle: water 227 % of control | dose: 1.0 mg/kg/injection, schedule: Q04DX004 (ip), vehicle: saline 233 % of control | dose: 1.1 mg/kg/injection, schedule: Q04DX003 (ip), vehicle: saline 532 % of control and 180 % of control | dose: 1.2 mg/kg/injection, schedule: Q04DX003 (ip), vehicle: clinical formulation 240 % of control | dose: 1.3 mg/kg/injection, schedule: Q04DX003 (ip), vehicle: saline 250 % of control | dose: 1.5 mg/kg/injection, schedule: Q04DX004 (ip), vehicle: saline 252 % of control | dose: 1.65 mg/kg/injection, schedule: Q04DX003 (ip), vehicle: saline 532 % of control | dose: 2.0 mg/kg/injection, schedule: Q01DX001 (ip), vehicle: water 168 % of control | dose: 2.47 mg/kg/injection, schedule: Q04DX003 (ip), vehicle: saline 166 % of control | dose: 4.0 mg/kg/injection, schedule: Q01DX001 (ip), vehicle: saline 235 % of control and 163 % of control | dose: 15.6 micrograms/kg/injection, schedule: Q03HX008 (ip), vehicle: clinical formulation 157 % of control | dose: 15.6 micrograms/kg/injection, schedule: Q03HX016 (ip), vehicle: clinical formulation 185 % of control | dose: 31.2 micrograms/kg/injection, schedule: Q03HX008 (ip), vehicle: clinical formulation 185 % of control | dose: 31.2 micrograms/kg/injection, schedule: Q03HX024 (ip), vehicle: clinical formulation 233 % of control | dose: 62.0 micrograms/kg/injection, schedule: Q03HX024 (ip), vehicle: saline 255 % of control | dose: 62.5 micrograms/kg/injection, schedule: Q03HX016 (ip), vehicle: clinical formulation 257 % of control | dose: 62.5 micrograms/kg/injection, schedule: Q04DX003 (ip), vehicle: clinical formulation 166 % of control | dose: 125.0 micrograms/kg/injection, schedule: Q03HX016 (ip), vehicle: clinical formulation 314 % of control | dose: 125.0 micrograms/kg/injection, schedule: Q03HX024 (ip), vehicle: saline 370 % of control | dose: 125.0 micrograms/kg/injection, schedule: Q04DX003 (ip), vehicle: clinical formulation 180 % of control | dose: 125.0 micrograms/kg/injection, schedule: Q08DX002 (ip), vehicle: clinical formulation 171 % of control | dose: 250.0 micrograms/kg/injection, schedule: Q01DX001 (ip), vehicle: clinical formulation 161 % of control | dose: 250.0 micrograms/kg/injection, schedule: Q01DX009 (ip), vehicle: clinical formulation 242 % of control | dose: 250.0 micrograms/kg/injection, schedule: Q03HX008 (ip), vehicle: clinical formulation 247 % of control | dose: 250.0 micrograms/kg/injection, schedule: Q08DX002 (ip), vehicle: clinical formulation 176 % of control | dose: 360.0 micrograms/kg/injection, schedule: Q04DX003 (ip), vehicle: saline 182 % of control | dose: 432.0 micrograms/kg/injection, schedule: Q04DX003 (ip), vehicle: saline 249 % of control | dose: 500.0 micrograms/kg/injection, schedule: Q01DX001 (ip), vehicle: clinical formulation 152 % of control | dose: 500.0 micrograms/kg/injection, schedule: Q04DX003 (ip), vehicle: clinical formulation 228 % of control | dose: 500.0 micrograms/kg/injection, schedule: Q04DX003 (ip), vehicle: saline 248 % of control | dose: 500.0 micrograms/kg/injection, schedule: Q08DX002 (ip), vehicle: clinical formulation 180 % of control | dose: 540.0 micrograms/kg/injection, schedule: Q04DX003 (ip), vehicle: saline 240 % of control and 272 % of control | dose: 600.0 micrograms/kg/injection, schedule: Q04DX003 (ip), vehicle: saline 250 % of control and 182 % of control | dose: 648.0 micrograms/kg/injection, schedule: Q04DX003 (ip), vehicle: saline 254 % of control | dose: 720.0 micrograms/kg/injection, schedule: Q04DX003 (ip), vehicle: saline 225 % of control and 291 % of control | dose: 900.0 micrograms/kg/injection, schedule: Q04DX003 (ip), vehicle: saline 280 % of control and 322 % of control | dose: 1000.0 micrograms/kg/injection, schedule: Q04DX003 (ip), vehicle: clinical formulation 571 % of control | dose: 1000.0 micrograms/kg/injection, schedule: Q08DX002 (ip), vehicle: clinical formulation 228 % of control | dose: 1080.0 micrograms/kg/injection, schedule: Q04DX003 (ip), vehicle: saline 292 % of control | dose: 1500.0 micrograms/kg/injection, schedule: Q04DX003 (ip), vehicle: saline 278 % of control and 320 % of control | dose: 1800.0 micrograms/kg/injection, schedule: Q04DX003 (ip), vehicle: saline 294 % of control | dose: 2000.0 micrograms/kg/injection, schedule: Q08DX002 (ip), vehicle: clinical formulation 300 % of control | dose: 4000.0 micrograms/kg/injection, schedule: Q01DX001 (ip), vehicle: clinical formulation 233 % of control | dose: 4000.0 micrograms/kg/injection, schedule: Q08DX002 (ip), vehicle: clinical formulation 238 % of control
inactive: dose: 0.03 mg/kg/injection, schedule: Q01DX009 (ip), vehicle: water 86 % of control | dose: 0.06 mg/kg/injection, schedule: Q04DX003 (ip), vehicle: water 90 % of control | dose: 0.5 mg/kg/injection, schedule: Q01DX009 (ip), vehicle: saline 90 % of control | dose: 0.5 mg/kg/injection, schedule: Q01DX010 (ip), vehicle: saline 86 % of control and 90 % of control | dose: 1.56 mg/kg/injection, schedule: Q04DX002 (ip), vehicle: saline 90 % of control | dose: 1.8 mg/kg/injection, schedule: Q04DX003 (ip), vehicle: clinical formulation 113 % of control | dose: 2.0 mg/kg/injection, schedule: Q04DX003 (ip), vehicle: saline 116 % of control | dose: 4.0 mg/kg/injection, schedule: Q04DX003 (ip), vehicle: water 111 % of control | dose: 250.0 micrograms/kg/injection, schedule: Q03HX024 (ip), vehicle: saline 90 % of control | dose: 500.0 micrograms/kg/injection, schedule: Q03HX016 (ip), vehicle: clinical formulation 123 % of control | dose: 600.0 micrograms/kg/injection, schedule: Q01DX009 (ip), vehicle: saline 120 % of control | dose: 2000.0 micrograms/kg/injection, schedule: Q04DX003 (ip), vehicle: clinical formulation 95 % of control
